What was measured:
[1] = test system: acetic acid induced writhes; assay: Acetic acid writhing; type: in vivo, mouse
Procedure: Pharmacological Test Example 4: Acetic Acid Wirthing
This test was carried out referring to the method of Inoue, K., Motonaga, A. & Nishimura, T (Arzneimittel Forshung/Drug Research, 41 (1): 235–239 (1991)). More specifically, 7.5 mL/kg of 0.9% acetic acid solution was injected intraperitoneally into an ICR-strain male mouse (5 to 7 weeks old), and the induced writhes (characteristic behaviors of convulsive contracting the abdomen, twisting the body and/or extending the legs) were observed. Number of writhes of each mouse was measured during 10 to 20 min. period after acetic acid administration. […] The analgesic activity of the compounds according to the present invention was evaluated on the basis of the degree of inhibiting the number writhes by the administration of the compounds. As the positive control, indomethacin or aspirin was administrated. The analgesic activity of the compounds according to the present invention measured in this test were exemplified in Table 7.

[2] = test system: Mouse Ear Edema Induced by TPA; assay: Mouse ear edema induced by TPA; type: in vivo; conditions: for Ear Edema Inhibition (%): topical, ICR male mouse, 6 hours after TPA
Procedure: Pharmacological Test Example 2: Mouse Ear Edema Induced by TPA
This test was carried out referring to the method of Carlson, R. P. et al. (Agents and Actions, 17(2): 197–204 (1985).) and the method of Chang, J. (European Journal of Pharmacology, 142: 197–205 (1987).). More specifically, 5 μg/20 μL of TPA (Sigma Chemical Co.), dissolved with ethanol, was topically applied to the anterior and posterior surfaces of the right ear of an ICR-strain male mouse (6–7 weeks old). 6 hours later, the thickness of each ear at the particular part was respectively measured three times using a digimatic micrometer to calculate the mean value. Ear edema was determined by subtracting the mean thickness of the left ear as without treatment from that of the right ear as TPA-applied. Topical application activity was evaluated by applying an acetone solution of the compound of the present invention or 0.1% Tween 80/acetone solution thereof similarly to the anterior and posterior surfaces of the right ear 30 min. before and 15 min. after the TPA-application. […] Oral administration activity was evaluated by administrating 0.2% Tween 80 suspension of the compound of the present invention forcibly and perorally to the mouse an hour prior to the TPA-application. As the positive control, 100 mg/kg of Hydrocortisone (Sigma Chemical Co., H 4001) suspension was applied to the mouse similarly as for the compound of the present invention.

Structure (SMILES)	Number of writhes (Mean ± S.E.) ([1]; i.p. 30 mg/kg, 30 min before, vehicle i.p. 25.2 ± 2.2)	Number of writhes (Mean ± S.E.) ([1]; p.o. 100 mg/kg, 60 min before)	body weight after 24 hours ([2]; mice of the TPA ear edema test)	Ear Edema Inhibition (%) ([2]; 1 mg/20 μL/ear × 2)	Number of writhes (Mean ± S.E.) ([1]; i.p. 3 mg/kg, 30 min before, vehicle i.p. 25.2 ± 2.2)	Number of writhes (Mean ± S.E.) ([1]; i.p. 10 mg/kg, 30 min before, vehicle i.p. 25.2 ± 2.2)	Number of writhes (Mean ± S.E.) ([1]; p.o. 3 mg/kg, 60 min before)	intoxicated symptoms ([2]; mice of the TPA ear edema test)	Ear Edema Inhibition (%) ([2]; 3 mg/40 μL/ear × 2)
CC(=O)Oc1ccccc1C(=O)O [Aspirin, aspirin]	9.5 ± 2.0	9.5 ± 1.9							
CC(=O)OCC(=O)[C@@]1(O)[C@H](C)C[C@H]2[C@@H]3CCC4=CC(=O)C=C[C@]4(C)[C@@]3(F)[C@@H](O)C[C@@]21C [DEX-Ac, Dexamathasone-21-acetate]			reduced	79.6					
COc1ccc2c(c1)c(CC(=O)O)c(C)n2C(=O)c1ccc(Cl)cc1 [Indomethacin, indomethacin]			reduced		13.8 ± 3.0	4.8 ± 0.9	6.8 ± 2.0	showed intoxicated symptoms	63.5

Reference: patent US7189751B2, “Oxa(thia)zolidine compounds, process for preparation thereof and anti-inflammatory agents” (Nippon Soda Co., Ltd., priority 2001, dated 2007)
